IC50 data for 13 compounds are collected here from US11623919B2, “Heterocyclic P2X7 antagonists” (AXXAM S.P.A., priority 2017, dated 2023).

Assay type in all cases: cell-based
Assay [1] concerns the target T1, P2X7 receptor (Mus musculus, UniProt Q9Z1M0).
T1 construct: mP2X7 (IC50; nM); other: mP2X7; HEK-293 cells stably transfected with P2X7 receptor, Bz-ATP at EC80, Fluo-8 NW; potency
T1 sequence (Q9Z1M0 1-595): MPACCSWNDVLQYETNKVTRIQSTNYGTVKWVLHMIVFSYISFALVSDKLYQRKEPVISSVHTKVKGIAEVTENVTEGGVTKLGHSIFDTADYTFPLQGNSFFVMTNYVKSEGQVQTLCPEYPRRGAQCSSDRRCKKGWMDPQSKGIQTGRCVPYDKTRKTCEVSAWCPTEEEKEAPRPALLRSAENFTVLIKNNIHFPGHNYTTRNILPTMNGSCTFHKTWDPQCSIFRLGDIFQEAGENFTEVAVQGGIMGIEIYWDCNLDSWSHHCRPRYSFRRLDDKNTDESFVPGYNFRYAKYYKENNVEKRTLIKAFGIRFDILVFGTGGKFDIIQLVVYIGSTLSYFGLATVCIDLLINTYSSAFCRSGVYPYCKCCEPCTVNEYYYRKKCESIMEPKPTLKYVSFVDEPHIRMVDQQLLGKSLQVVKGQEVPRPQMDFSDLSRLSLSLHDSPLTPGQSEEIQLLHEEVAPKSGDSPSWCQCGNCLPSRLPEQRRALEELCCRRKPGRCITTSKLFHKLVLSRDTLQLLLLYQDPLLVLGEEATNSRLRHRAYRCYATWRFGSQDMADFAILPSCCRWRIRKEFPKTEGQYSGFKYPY
Kind of assay: Screen Quest Fluo-8 No Wash Calcium Assay (Bz-ATP evoked Ca2+ influx, FLIPR). The note with it: mP2X7; HEK-293 cells stably transfected with P2X7 receptor, Bz-ATP at EC80, Fluo-8 NW; potency ranges A-D. The method in brief:
(§1)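 Compounds were added to Fluo-8-loaded P2X7-transfected HEK-293 cells 5 min before an EC80 Bz-ATP challenge, and Ca2+ influx was then recorded for 3 min. Buffer held 0.3 mM Ca2+ and no Mg2+. Inhibition was normalised to A438079, giving IC50 values.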

Assay [2] deals with T2, P2X7 receptor (Rattus norvegicus, UniProt Q64663).
T2 construct: rP2X7 (IC50; nM); other: rP2X7; HEK-293 cells stably transfected with P2X7 receptor, Bz-ATP at EC80, Fluo-8 NW; potency
T2 sequence (Q64663 1-595): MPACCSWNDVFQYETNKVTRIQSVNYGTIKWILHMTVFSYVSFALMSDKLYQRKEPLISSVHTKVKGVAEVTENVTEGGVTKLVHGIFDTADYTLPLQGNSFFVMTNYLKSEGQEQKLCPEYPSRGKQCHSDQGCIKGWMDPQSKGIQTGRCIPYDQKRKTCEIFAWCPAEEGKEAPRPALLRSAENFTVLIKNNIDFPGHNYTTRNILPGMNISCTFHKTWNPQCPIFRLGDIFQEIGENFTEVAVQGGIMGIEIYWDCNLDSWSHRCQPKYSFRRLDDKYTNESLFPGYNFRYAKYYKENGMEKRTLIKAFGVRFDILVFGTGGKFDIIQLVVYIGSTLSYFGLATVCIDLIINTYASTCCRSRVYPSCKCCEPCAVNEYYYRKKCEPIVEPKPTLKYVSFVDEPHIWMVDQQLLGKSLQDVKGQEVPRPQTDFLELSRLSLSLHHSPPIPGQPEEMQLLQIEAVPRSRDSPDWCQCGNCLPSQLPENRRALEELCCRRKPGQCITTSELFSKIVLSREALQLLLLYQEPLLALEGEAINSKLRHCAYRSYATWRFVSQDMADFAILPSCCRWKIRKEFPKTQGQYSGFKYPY
The description is as above. The settings on record: rP2X7; HEK-293 cells stably transfected with P2X7 receptor, Bz-ATP at EC80, Fluo-8 NW; potency ranges A-D. The method in brief:
as §1

For assay [3], the target named is T3, P2X7 receptor (Homo sapiens, UniProt Q99572).
T3 sequence (Q99572 1-595): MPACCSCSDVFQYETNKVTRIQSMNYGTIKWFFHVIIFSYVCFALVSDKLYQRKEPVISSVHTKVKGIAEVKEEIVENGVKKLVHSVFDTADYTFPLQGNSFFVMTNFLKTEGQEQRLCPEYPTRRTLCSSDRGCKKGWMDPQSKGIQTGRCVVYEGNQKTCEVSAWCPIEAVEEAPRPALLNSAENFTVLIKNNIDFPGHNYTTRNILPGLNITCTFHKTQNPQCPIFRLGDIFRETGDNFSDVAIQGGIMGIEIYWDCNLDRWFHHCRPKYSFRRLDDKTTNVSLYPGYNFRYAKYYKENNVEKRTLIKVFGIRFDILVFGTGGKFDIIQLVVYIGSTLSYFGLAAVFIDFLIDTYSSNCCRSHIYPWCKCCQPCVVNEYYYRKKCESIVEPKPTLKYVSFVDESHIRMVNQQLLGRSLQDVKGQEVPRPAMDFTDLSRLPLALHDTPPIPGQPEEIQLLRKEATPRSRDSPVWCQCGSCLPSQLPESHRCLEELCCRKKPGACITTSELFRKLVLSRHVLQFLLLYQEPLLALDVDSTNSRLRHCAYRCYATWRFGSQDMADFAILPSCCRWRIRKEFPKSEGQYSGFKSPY
Put plainly: Automated patch-clamp (QPatch16X) P2X7 channel assay. On the set-up: expressed in transfected cells; host or cells: HEK-293. The note with it: HEK-293 cells expressing P2X7 channels; whole-cell, held at -80 mV; 100 microM BzATP; compound 1, 10, 100 and 1000 nM; read-out: Q-Patch (IC50). As for the experimental part: In order to directly monitor the block of P2X7 channel, an electrophysiological assay was developed and implemented on the QPatch16X automated electrophysiology instrument.
HEK-293 cells expressing the P2X7 channels were cultured in modified EMEM.
72 hours before experiment, 5 million cells were seeded onto T225 flasks. Just before the experiment cells were washed twice, detached from the flask with trypsin-EDTA, re-suspended in the suspension solution and placed on the QPatch 16x.
The compounds (20 mM in a 100% DMSO) stored at −20° C. were prepared the day of the experiment (a first dilution 1:20 in 100% DMSO to prepare a 1 mM stock solution, then a 1 microM solution in external solution+a serial dilution 1:10).
The standard whole-cell voltage clamp experiments were performed at room temperature. From these experiments the multihole technology was used and the data were sampled at 2 KHz.
The intracellular solution contained (mM) 135 CsF, 10 NaCl, 1 EGTA, 10 HEPES, (pH 7.2 with CsOH) whereas the extracellular contained (mM) 145 NaCl, 4 KCl, 0.5 MgCl2, 1 CaCl2, 10 HEPES, 10 Glc (pH 7.4 with NaOH).
After establishment of the seal and the passage in the whole cell configuration, the cells were held at −80 mV. The P2XR7 current was evoked by applying 100 microM of BzATP alone (4 times) and then in the presence increasing concentrations of the compound under investigation (1, 10, 100 and 1000 nM).
The pre-incubation periods 5 to 8 contain increasing concentrations of the compound of interest (1, 10, 100 and 1000 nM), as illustrated in FIGURE (application protocol).
The maximal inward current evoked by BzATP in absence or presence of increasing concentrations of the compounds under investigation was measured and normalized. The potential […] effect was measured as % of control and as IC50 determined fitting the dose-response curves data with the following equation: Y=100/(1+10^((Log IC50−X)*HillSlope))
For orientation: In patch-clamp work, channel activity is measured electrically.

The target in assay [4] is T3, P2X7 receptor. Put plainly: Screen Quest Fluo-8 No Wash Calcium Assay (Bz-ATP evoked Ca2+ influx, FLIPR). On the set-up: hP2X7 (IC50; nM); other: hP2X7; HEK-293 cells stably transfected with P2X7 receptor, Bz-ATP at EC80, Fluo-8 NW; potency. The note with it: hP2X7; HEK-293 cells stably transfected with P2X7 receptor, Bz-ATP at EC80, Fluo-8 NW; potency ranges A-D. The method in brief:
as §1

Take `O=c1onc(Cc2c(F)cccc2Cl)n1Cc1cccc(Cl)c1Cl` [Example 59, 3-[(2-chloro-6-fluorophenyl)methyl]-4-[(2,3-dichlorophenyl)methyl]-4,5-dihydro-1,2,4-oxadiazol-5-one]: the IC50 – broadly, the concentration that gives 50% inhibition – is 200 to 1000 nM on P2X7 receptor [1], 200 to 1000 nM at P2X7 receptor [2], 0.355 µM at P2X7 receptor [3] and 200 to 1000 nM at P2X7 receptor [4].
Take `O=c1onc(Cc2cccc(Cl)c2Cl)n1CC1CCC(F)(F)CC1` [Example 156, 3-[(2,3-dichlorophenyl)methyl]-4-[(4,4-difluorocyclohexyl)methyl]-4,5-dihydro-1,2,4-oxadiazol-5-one]: the IC50 at P2X7 receptor [1] is 200 to 1000 nM; on P2X7 receptor [2], < 200 nM; on P2X7 receptor [4] it was < 200 nM.
In the case of `CC(c1ccccc1)n1c(Cc2ccc(F)cc2)noc1=O` (centres unmarked) [Example 10, 3-[(4-fluorophenyl)methyl]-4-(1-phenylethyl)-4,5-dihydro-1,2,4-oxadiazol-5-one], the IC50 is > 10000 nM on P2X7 receptor [1], 1000 to 10000 nM at P2X7 receptor [2] and 200 to 1000 nM at P2X7 receptor [4].
`O=c1onc(Cc2c(F)cccc2Cl)n1Cc1ccoc1` [Example 44, 3-[(2-chloro-6-fluorophenyl)methyl]-4-(furan-3-ylmethyl)-4,5-dihydro-1,2,4-oxadiazol-5-one]: the IC50 on P2X7 receptor [1] was > 10000 nM; at P2X7 receptor [2] it was 1000 to 10000 nM; at P2X7 receptor [4] it was 1000 to 10000 nM.
With `COc1ccc(Cn2c(Cc3c(F)cccc3Cl)noc2=O)cc1` [Example 68, 3-[(2-chloro-6-fluorophenyl)methyl]-4-[(4-methoxyphenyl)methyl]-4,5-dihydro-1,2,4-oxadiazol-5-one], the IC50 at P2X7 receptor [1] is > 10000 nM; at P2X7 receptor [2] it was > 10000 nM; at P2X7 receptor [4], 1000 to 10000 nM.
For the compound `CC(c1ccccc1)n1c(Cc2c(F)cccc2Cl)noc1=O` (centres unmarked) [Example 49, 3-[(2-chloro-6-fluorophenyl)methyl]-4-(1-phenylethyl)-4,5-dihydro-1,2,4-oxadiazol-5-one], the IC50 at P2X7 receptor [1] was 1000 to 10000 nM; at P2X7 receptor [2] it was 200 to 1000 nM; on P2X7 receptor [3], 0.391 µM; at P2X7 receptor [4], 1000 to 10000 nM.
On to `O=c1onc(Cc2ccccc2C(F)(F)F)n1CC1CCC(F)(F)CC1` [Example 157, 4-[(4,4-difluorocyclohexyl)methyl]-3-{[2-(trifluoromethyl)phenyl]methyl}-4,5-dihydro-1,2,4-oxadiazol-5-one], for which the results for the half-maximal inhibitory concentration (IC50) on P2X7 receptor [1], at P2X7 receptor [2] and on P2X7 receptor [4] were 200 to 1000 nM, < 200 nM and < 200 nM, respectively.
With `CCCOCn1c(Cc2c(F)cccc2Cl)noc1=O` [Example 102, 3-[(2-chloro-6-fluorophenyl)methyl]-4-(propoxymethyl)-4,5-dihydro-1,2,4-oxadiazol-5-one], the results for the IC50 on P2X7 receptor [1], at P2X7 receptor [2] and at P2X7 receptor [4] were > 10000 nM, 1000 to 10000 nM and 1000 to 10000 nM, respectively.
`Cc1ccc(Cn2c(Cc3c(F)cccc3Cl)noc2=O)cc1` [Example 67, 3-[(2-chloro-6-fluorophenyl)methyl]-4-[(4-methylphenyl)methyl]-4,5-dihydro-1,2,4-oxadiazol-5-one]: the half-inhibitory concentration (IC50) at P2X7 receptor [1], on P2X7 receptor [2] and at P2X7 receptor [4] was 1000 to 10000 nM in each case.
For the compound `Cc1nn(C)c(C)c1Cc1noc(=O)n1Cc1c(F)cccc1Cl` [Example 213, 4-[(2-chloro-6-fluorophenyl)methyl]-3-[(trimethyl-1H-pyrazol-4-yl)methyl]-4,5-dihydro-1,2,4-oxadiazol-5-one], the 50% inhibitory concentration (IC50) at P2X7 receptor [1] is > 10000 nM; on P2X7 receptor [2] it was > 10000 nM; on P2X7 receptor [4], 1000 to 10000 nM.
`O=c1onc(Cc2ccccc2Cl)n1Cc1c(F)cccc1Cl` [Example 20, 4-[(2-chloro-6-fluorophenyl)methyl]-3-[(2-chlorophenyl)methyl]-4,5-dihydro-1,2,4-oxadiazol-5-one]: the IC50 at P2X7 receptor [1], on P2X7 receptor [2] and on P2X7 receptor [4] was 1000 to 10000 nM each time.
Regarding `O=c1onc(Cc2c(F)cccc2Cl)n1Cc1ccccc1F` [Example 56, 3-[(2-chloro-6-fluorophenyl)methyl]-4-[(2-fluorophenyl)methyl]-4,5-dihydro-1,2,4-oxadiazol-5-one], the half-maximal inhibitory concentration (IC50) at P2X7 receptor [1], at P2X7 receptor [2] and on P2X7 receptor [4] was 1000 to 10000 nM throughout.
In the case of `O=c1onc(Cc2cccc(C(F)(F)F)c2Cl)n1CC1CCCCC1` [Example 113, 3-{[2-chloro-3-(trifluoromethyl)phenyl]methyl}-4-(cyclohexylmethyl)-4,5-dihydro-1,2,4-oxadiazol-5-one], the IC50 at P2X7 receptor [1], at P2X7 receptor [2] and on P2X7 receptor [4] was 1000 to 10000 nM in each case.
